Measured values taken from PMC6835155, “Lessons from LIMK1 enzymology and their impact on inhibitor design” (Biochemical Journal, 2019).

Assays:
[1] = target: T1, LIMK2KD (Homo sapiens, UniProt P53671); test: Differential (dynamic) scanning fluorimetry (DSF) assay, LIMK2KD; type: binding; details: LIMK2KD, compound 10 µM, single shot; for ΔTm at 10 µM: read-out: TM Shift LIMK2 (K)
T1 construct: The cDNA coding for LIMK2 residues 330 to 632 was PCR amplified; His6 (N, cleaved yes); made in house; host or cells: baculovirus; Sf9 for virus, TriEx insect cells for expression

[2] = target: T2, LIMK1KD (Homo sapiens, UniProt P53667); test: Differential (dynamic) scanning fluorimetry (DSF) assay, LIMK1KD; type: binding; details: 2 µM LIMK1KD, compound 10 µM, single shot; for ΔTm at 10 µM: read-out: TM Shift LIMK1 (K)
T2 construct: His6 (N, cleaved yes); made in house; host or cells: baculovirus; Sf9 for virus, TriEx insect cells for expression
T2 sequence (P53667 330-637): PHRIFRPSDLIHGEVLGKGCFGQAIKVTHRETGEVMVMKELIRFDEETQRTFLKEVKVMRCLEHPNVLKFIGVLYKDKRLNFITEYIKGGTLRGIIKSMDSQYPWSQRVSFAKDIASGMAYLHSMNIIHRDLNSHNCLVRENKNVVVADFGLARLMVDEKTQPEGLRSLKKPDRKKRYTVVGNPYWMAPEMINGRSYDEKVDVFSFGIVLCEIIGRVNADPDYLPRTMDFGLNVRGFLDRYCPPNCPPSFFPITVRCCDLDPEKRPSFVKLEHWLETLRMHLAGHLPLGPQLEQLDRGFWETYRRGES

T1 sequence (P53671 330-632): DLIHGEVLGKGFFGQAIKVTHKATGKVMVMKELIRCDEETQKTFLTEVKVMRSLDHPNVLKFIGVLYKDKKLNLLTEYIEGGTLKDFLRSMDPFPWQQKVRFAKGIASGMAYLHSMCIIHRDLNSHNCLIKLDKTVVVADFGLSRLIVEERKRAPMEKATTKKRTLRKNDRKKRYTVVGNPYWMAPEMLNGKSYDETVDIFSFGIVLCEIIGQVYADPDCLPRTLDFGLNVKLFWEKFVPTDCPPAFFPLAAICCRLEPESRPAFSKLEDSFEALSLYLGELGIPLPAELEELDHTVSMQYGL

SMILES | ΔTm at 10 µM [1] [°C] | ΔTm at 10 µM [2] [°C] | other results
CCN(CCO)CCCOc1ccc2c(Nc3cc(CC(=O)Nc4cccc(F)c4)[nH]n3)ncnc2c1 [AZD1152-HQPA, Barasertib] |  |  | TM Shift LIMK2 (K) ([1]; 10 µM): 0.7 K; TM Shift LIMK2 (K) ([1]; listed as Barasertib (AZD1152-HQPA), 10 µM): -0.2 K; TM Shift LIMK1 (K) [2]: 0.6 K; TM Shift LIMK1 (K) ([2]; listed as Barasertib (AZD1152-HQPA)): 0.2 K
Cc1cc(Nc2nc(N[C@@H](C)c3ncc(F)cn3)ncc2Cl)n[nH]1 [AZD1480] | 0.6 | 4.7 | 
CNC(=O)c1cccc(-c2ccc3c(N4CCOC[C@@H]4C)nc(N4CCOC[C@@H]4C)nc3n2)c1 [AZD2014] | -0.3 | 0.2 | 
COc1cc(N2CCC(N)CC2)ccc1Nc1ncc(Cl)c(-c2c[nH]c3ccccc23)n1 [AZD3463] |  |  | TM Shift LIMK2 (K) [1]: 3.1 K; TM Shift LIMK1 (K) [2]: 2.5 K
Cc1ncc(-c2ccnc(Nc3ccc(S(C)(=O)=O)cc3)n2)n1C(C)C [AZD5438] | 1.7 | 4.4 | 
Cc1cc([C@@H](C)Nc2ccccc2C(=O)O)c2nc(N3CCOCC3)cc(=O)n2c1 [AZD6482] | 1.8 | 0.7 | 
COc1ccc(-c2ccc3c(N4CCOC[C@@H]4C)nc(N4CCOC[C@@H]4C)nc3n2)cc1CO [AZD8055] | 0.8 | 0.9 | 
Cc1cc(C(=O)NOCCO)c(Nc2ccc(I)cc2F)n(C)c1=O [AZD8330] | 0.2 | 0.3 | 
CNC(=O)CN1CCC(Oc2cc3c(Nc4cccc(Cl)c4F)ncnc3cc2OC)CC1 [AZD8931 (Sapitinib), Sapitinib] | 0.6 | 0.9 | 
NC(=O)c1ncn([C@@H]2O[C@H](CO)[C@@H](O)[C@H]2O)c1N [Acadesine] | 2.1 | 0.7 | 
CCc1cc2c(cc1N1CCC(N3CCOCC3)CC1)C(C)(C)c1[nH]c3cc(C#N)ccc3c1C2=O [Alectinib (CH5424802), Alectinib] | 1.1 | -1.6 | 
COc1cc(Nc2ncc3c(n2)-c2ccc(Cl)cc2C(c2c(F)cccc2OC)=NC3)ccc1C(=O)O [Alisertib (MLN8237), Alisertib] | 1.8 | -0.3 | 
CN1CC[C@H](c2c(O)cc(O)c3c(=O)cc(-c4ccccc4Cl)oc23)[C@H](O)C1 [Alvocidib] | 0.5 | 1.9 | 
S=C(NCc1ccc2c(c1)OCO2)N1CCN(c2ncnc3c2oc2ccccc23)CC1 [Amuvatinib (MP-470), Amuvatinib] | 2.3 | -0.3 | 
N#CC1(c2ccc(NC(=O)c3cccnc3NCc3ccncc3)cc2)CCCC1 [Apatinib] | 3.8 | 0.2 | 
Cc1c(CN2CCN(C(=O)[C@H](C)O)CC2)sc2c(N3CCOCC3)nc(-c3cnc(N)nc3)nc12 [Apitolisib] | 0.6 | 1.6 | 
C[C@H]1[C@H](C)CC[C@]2(C(=O)O)CC[C@]3(C)C(=CC[C@@H]4[C@@]5(C)C[C@@H](O)[C@H](O)[C@@](C)(CO)[C@@H]5CC[C@]43C)[C@H]12 [Asiatic Acid] | 1.7 | -0.9 | 
CCN1CCN(C(=O)Cc2ccc(Nc3ncc(F)c(Nc4ccc(C(=O)Nc5ccccc5Cl)cc4)n3)cc2)CC1 [Aurora A Inhibitor I] |  |  | TM Shift LIMK2 (K) [1]: 3.7 K; TM Shift LIMK1 (K) [2]: 4.9 K
CNC(=O)c1ccccc1Sc1ccc2c(/C=C/c3ccccn3)n[nH]c2c1 [Axitinib] | -0.7 | 2 | 
Cc1ccc(S(=O)(=O)/C=C/C#N)cc1 [BAY 11-7082] |  |  | TM Shift LIMK2 (K) [1]: 0.2 K; TM Shift LIMK1 (K) [2]: -0.8 K
COc1ccc(-c2ccc3ncc4c(c3c2)n(-c2ccc(N3CCNCC3)c(C(F)(F)F)c2)c(=O)n4C)cn1 [BGT226 (NVP-BGT226)] | -0.7 | -0.1 | 
CC(C)CCN1c2nc(Nc3cc(F)c(O)c(F)c3)ncc2N(C)C(=O)C1C (centres unmarked) [BI-D1870] |  |  | TM Shift LIMK2 (K) [1]: 3.9 K; TM Shift LIMK1 (K) [2]: 2.2 K
O=C1Nc2cc(Br)ccc2/C1=C1/Nc2ccccc2/C1=N\O [BIO] |  |  | TM Shift LIMK2 (K) [1]: 2.2 K; TM Shift LIMK1 (K) [2]: 0.2 K
CN(C)Cc1cccc(N/C(=C2\C(=O)Nc3cc(C(N)=O)ccc32)c2ccccc2)c1 [BIX 02188] | -0.1 | 1.7 | 
CN(C)Cc1cccc(N/C(=C2\C(=O)Nc3cc(C(=O)N(C)C)ccc32)c2ccccc2)c1 [BIX 02189] |  |  | TM Shift LIMK2 (K) [1]: 4.5 K; TM Shift LIMK1 (K) [2]: 0.1 K
CCCCOc1c(C(=O)c2c(F)cc(C)cc2F)c[nH]c2nncc1-2 [BMS-265246] | 1.4 | 0.7 | 
Cc1ccc2nc(NCCN)c3ncc(C)n3c2c1 [BMS-345541] | 2.8 | 0.4 | 
Cc1ccc(Nc2nccc(N(C)c3ccc4c(C)n(C)nc4c3)n2)cc1S(N)(=O)=O [Pazopanib] | 6.2 |  | 
O=c1c(O)c(-c2ccc(O)c(O)c2)oc2cc(O)cc(O)c12 [Quercetin] | 3.9 |  | 
CNC(=O)c1cc(Oc2ccc(NC(=O)Nc3ccc(Cl)c(C(F)(F)F)c3)cc2)ccn1 [Sorafenib] |  |  | TM Shift LIMK1 (K) [2]: -0.7 K
